Like-named read-outs stand apart in the source and are kept apart here.
Assays:
mTORC2 signaling pathway = assay: Immunoblot analysis of mTORC2 signaling pathway in A549 cells; format: cell-based, human
Description: In order to investigate the effect on the mTORC2 signaling pathway of norathyriol in a culture cell model, after treating norathyriol to a human cell line A549, Akt Ser473 phosphorylation, Akt Thr308 phosphorylation, and NDRG1 Thr346 phosphorylation were measured by immunoblot analysis over time. The A549 cells were cultured in RPMI culture medium in which 10% heat inactivated FBS and 1× GlutaMax were added. After seeding the A549 cells of 2×10^5 in a 60 mm culture dish and culturing them for 1 day, norathyriol was treated to the cells. The cells were washed with ice-cold 1× PBS twice, and then the cells were […] using RIPA buffer (50 mM Tris-HCl (pH7.4), 150 mM NaCl, 0.25% sodium deoxycholate, 1% NP-40, 1% SDS, 1 mM EDTA, 1 mM EGTA, 1 mM sodium β-glycerophosphate, 1 mM PMSF, 1 μg/ml leupeptin, 1 μg/ml pepstatin A, 10 nM aprotinin, 1 mM Na3VO4, 50 mM NaF, 10 nM calyculin A) on ice. After removing undissolved substances by centrifuging at 4° C. at 15,000× g for 15 minutes, the supernatant was recovered to determine the protein concentration with BCA protein assay kit (Thermo Fisher Scientific). 2× SDS-PAGE sample buffer in the same volume was added to the supernatant and boiled for 5 minutes, and then it was developed under a reducing condition by SDS-polyacrylamide gel electrophoresis. The developed protein was transferred into a PVDF membrane by an electro blotting method. The membrane was blocked in TBST containing 5% skim milk (100 mM Tris-Cl, pH 8.8, 150 mM NaCl, 0.1% Tween-20) at a room temperature for 1 hour, and then it was reacted with a primary antibody. After washing with TBST for 10 minutes 3 times, it was reacted with a secondary antibody conjugated with HRP. After washing with TBST for 10 minutes 3 times, it was reacted with an enhanced chemiluminescence (ECL) reagent to obtain an image of the protein combined with the secondary antibody. For the immunoblot analysis, AKT antibody (#4691, Cell Signaling), phospho-Ser473 AKT antibody (#4060, Cell Signaling), phospho-Thr308 AKT antibody (#2965, Cell Signaling), p70 S6 kinase antibody (#9202, Cell Signaling), and phospho-Thr389 p70 S6 kinase antibody (#9205, Cell Signaling) were used.
mTORC2 activates SGK1, and SGK1 phosphorylates NDRG1 Thr346. NDRG1 phosphorylated at Thr346 is removed by a ubiquitination-proteasome system. Accordingly, when the mTORC2 activity is inhibited, NDRG1 Thr346 phosphorylation is reduced, whereas NDRG1 protein increases.

mTORC2 = mTORC2 (Homo sapiens, UniProt P42345); assay: LocaTOR2 assay in A549 cells (FRB-AKT2 Ser473 phosphorylation); format: cell-based; set-up: endogenous in cells; host or cells: A549 (transfected only with the FKBP-recruiter and the FRB-AKT2 reporter); details: for IC50: FIG. 9g
Text: mTORC2 is located in the cell membrane, endosome, ER and mitochondrial membrane. mTORC2 forms an mTORC2 complex as an activated form of ras (ras-GTP) operates as a scaffold in the cell membrane, whereas it forms an mTORC2 complex as mLST8 operates as a scaffold in the endosome. By this difference, the mTORC2 inhibitory effect of norathyriol may be shown differently depending on the subcellular compartment where mTORC2 is located. In order to investigate the mTORC2 inhibitory effect of norathyriol depending on the subcellular compartment location, in vivo LocaTOR2 assay was performed (Ebner et al. (2017) J. Cell Biol. 216:343-353). After introducing FKBP-recruiter selectively located in the membrane of the subcellular compartment and FRB^T2098L-AKT2 which is an mTORC2 substrate, AP21967 was treated for 40 minutes to induce binding between the FKBP-recruiter and FRB-AKT2, and FRB-AKT2 was moved to a specific subcellular compartment. In addition, the degree of phosphorylation of Ser473 of FRB-Akt by mTORC2 located in the site thereof was investigated by immunoblot analysis.

- FRB-AKT2 Ser473 phosphorylation, mitochondria (mTORC2; A549, Bcl-XL-FKBP recruiter, FIG. 9e): reduced
- FRB-AKT2 Ser473 phosphorylation, mTORC2 located in cell membrane (mTORC2; A549, KRas4B^C30-FKBP recruiter, AP21967, norathyriol at 30 μM and 60 μM, FIG. 9a): not reduced
- FRB-AKT2 Ser473 phosphorylation, mTORC2 located in early endosome (mTORC2; A549, Rab5-FKBP recruiter, FIG. 9b): reduced at a significant level
- FRB-AKT2 Ser473 phosphorylation, mTORC2 located in late endosome (mTORC2; A549, Rab7-FKBP recruiter, FIG. 9c): reduced at a significant level
- FRB-AKT2 Ser473 phosphorylation, mTORC2 located in recycling endosome (mTORC2; A549, Rab11-FKBP recruiter, FIG. 9d): reduced at a significant level
- FRB-AKT2 Ser473 phosphorylation, ER (mTORC2; A549, TcRb-FKBP recruiter, FIG. 9f): reduced
- IC50 (mTORC2; mTORC2 located in cell membrane (plasma membrane), read-out: IC50, mTORC2, PM): > 60 µM
- IC50 (mTORC2; mTORC2 located in early endosome, read-out: IC50, mTORC2, EE): < 30 µM
- IC50 (mTORC2; mTORC2 located in late endosome, read-out: IC50, mTORC2, LE): < 30 µM
- IC50 (mTORC2; mTORC2 located in recycling endosome, read-out: IC50, mTORC2, RE): 40 µM
Compound: O=c1c2cc(O)c(O)cc2oc2cc(O)cc(O)c12 [norathyriol, 1,3,6,7-tetrahydroxy-9H-xanthen-9-one]
- Akt Ser473 phosphorylation (mTORC2 activity indicator) (mTORC2 signaling pathway; FIG. 7a): reduced
- Akt Thr308 phosphorylation (PDK1 activity indicator) (mTORC2 signaling pathway; FIG. 7a): not reduced and rather increased after 24 hours
- NDRG1 protein (mTORC2 signaling pathway; FIG. 7b): increased significantly
- ratio of NDRG1 Thr346 phosphorylation to NDRG1 protein (mTORC2 signaling pathway; FIG. 7b): reduced
